Biological target: T1, Bifunctional epoxide hydrolase 2 (Homo sapiens, UniProt P34913)
T1 sequence (P34913 whole entry): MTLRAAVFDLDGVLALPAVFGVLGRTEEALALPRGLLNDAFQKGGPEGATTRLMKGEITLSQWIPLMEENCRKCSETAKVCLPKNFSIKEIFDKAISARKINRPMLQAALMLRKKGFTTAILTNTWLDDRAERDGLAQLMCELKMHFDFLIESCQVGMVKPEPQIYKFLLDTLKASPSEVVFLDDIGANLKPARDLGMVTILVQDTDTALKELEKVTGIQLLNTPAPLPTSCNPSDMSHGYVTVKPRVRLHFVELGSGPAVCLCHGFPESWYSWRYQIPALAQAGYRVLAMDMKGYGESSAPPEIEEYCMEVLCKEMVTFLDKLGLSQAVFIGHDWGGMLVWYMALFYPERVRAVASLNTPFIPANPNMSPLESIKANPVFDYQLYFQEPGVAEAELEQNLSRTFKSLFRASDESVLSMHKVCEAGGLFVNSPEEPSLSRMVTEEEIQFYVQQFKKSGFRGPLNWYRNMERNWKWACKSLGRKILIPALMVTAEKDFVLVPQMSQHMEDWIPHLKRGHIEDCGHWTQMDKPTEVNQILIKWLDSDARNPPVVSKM
Assay: Biochemical Characterization of Cif Inhibitors

Which IC50 does the source give for CCC(=O)Oc1ccc(NC(=O)NC23CC4CC(CC(C4)C2)C3)cc1 [US10322118, Urea-Based Scaffold Entry 1] here?
The IC50 was 0.0038 µM.

How did the IC50 turn out when CCCCCCCCCCCCS(C)(=O)=O [US10322118, Urea-Based Scaffold Entry 8] was run?
Its IC50 is 33.3 µM.

Biological target: T2, Putative hydrolase (Pseudomonas aeruginosa (strain UCBPP-PA14), UniProt A0A0H2ZD27)
T2 sequence (A0A0H2ZD27 whole entry): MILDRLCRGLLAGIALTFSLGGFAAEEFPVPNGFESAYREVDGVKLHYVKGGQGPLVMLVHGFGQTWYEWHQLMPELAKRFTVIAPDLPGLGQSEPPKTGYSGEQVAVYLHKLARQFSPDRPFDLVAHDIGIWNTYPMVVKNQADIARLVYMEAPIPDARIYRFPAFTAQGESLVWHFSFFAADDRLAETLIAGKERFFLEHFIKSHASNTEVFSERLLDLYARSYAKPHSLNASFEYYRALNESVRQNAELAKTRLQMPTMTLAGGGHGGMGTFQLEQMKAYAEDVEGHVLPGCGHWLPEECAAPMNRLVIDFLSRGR
Assay: Biochemical Characterization of Cif Inhibitors

For O=C(O)Cc1cc(I)c(Oc2cc(I)c(O)c(I)c2)c(I)c1 [US10322118, Entry 1], which IC50 is on record?
Its IC50 is 20 µM.

Which IC50 does the source give for O=C(O)Cc1cc(I)c(Oc2ccc(O)cc2)c(I)c1 [US10322118, Entry 3] here?
The IC50 was 100 µM.

For Cc1cc(OCC(=O)O)cc(C)c1Cc1ccc(O)c(C(C)C)c1 [US10322118, Entry 7], which IC50 is on record?
Its IC50 is > 100 µM.

For Oc1ccc(Oc2ccccc2)cc1 [US10322118, Entry 9], which IC50 is on record?
The IC50 was > 100 µM.

Which IC50 does the source give for Nc1ccc(Oc2ccccc2)cc1 [US10322118, Entry 10] here?
The IC50 was > 100 µM.

With O=C(O)c1ccc(Oc2ccccc2)cc1 [US10322118, Entry 11] as the compound, how does the IC50 read?
The IC50 was > 100 µM.

CCC(=O)Oc1ccc(NC(=O)NC23CC4CC(CC(C4)C2)C3)cc1 [US10322118, Urea-Based Scaffold Entry 1] was tested. Which IC50 did it give?
The IC50 was > 100 µM.

Which IC50 does the source give for Cc1cc(C)cc(NC(=O)NC(=O)c2c(F)cccc2F)c1 [US10322118, Urea-Based Scaffold Entry 3] here?
The IC50 was 1.8 µM.

With O=C(NC(=O)c1c(F)cccc1F)Nc1cc(Cl)cc(Cl)c1 [US10322118, Urea-Based Scaffold Entry 4] as the compound, how does the IC50 read?
The IC50 was 1.5 µM.

Which IC50 does the source give for CN(C(=O)NC(=O)c1c(F)cccc1F)c1ccc(Cl)cc1 [US10322118, Urea-Based Scaffold Entry 7] here?
The IC50 was > 100 µM.

With Cc1ccc(-c2cc(C(F)(F)F)nn2-c2ccc(S(N)(=O)=O)cc2)cc1 [US10322118, Urea-Based Scaffold Entry 9] as the compound, how does the IC50 read?
The IC50 was 7.4 µM.

— BindingDB's records for patent US10322118 (Dartmouth College, 2019)
